One assay has as its system Pseudomonas aeruginosa. Briefly: Attached single cells in well plate, Syto-9 staining. It is filed as cell-based. How it is done: An alternative method to observe biofilm formation on a 6 well plate with or without D-amino acids and using Syto-9 staining was as follows: Pseudomonas aeruginosa biofilms were washed twice with PBS and then fixed for at least an hour in 5% Glutaraldehyde in PBS. The fixed biofilms were then rinsed once again with PBS and soaked in 0.1% v/v Triton X-100 in PBS (PBST) for 15 minutes. The solution was exchanged with 0.1 nM […] (Invitrogen) in cold PBST and gently rocked in the dark for at least 15 minutes. Fluorescence images of the biofilms were captured with a Leica DMRX compound microscope using a Xe lamp and a K3 Leica filtercube. […] The amount of attached single cells was quantified using image J. The decrease in the amount of cells attached to the epoxy surfaces soaked with D-aa compared with the L-aa control was substantially more.

Assay [1] relates to Bacillus subtilis NCIB3610. Briefly: Colony biofilm formation on solid MSgg medium. The assay is classed as cell-based. As to conditions: 3 μM, 4 days. The protocol: (§1) Colony and pellicle formation. For colony formation on solid medium, cells were first grown to exponential growth phase in LB broth and 3 μl of culture were spotted onto solid MSgg medium containing 1.5% Bacto agar. The plates were incubated at 23° C. For pellicle formation in liquid medium, cells were grown to exponential phase and 6 μl of culture were mixed with 6 ml of medium in a 12-well plate (VWR). Plates were incubated at 23° C. Images of colonies and pellicles were taken using a SPOT camera (Diagnostic Instruments, USA).

Assay [2] relates to Bacillus subtilis NCIB3610. In words: Pellicle (biofilm) formation in liquid biofilm-inducing medium. It is filed as cell-based. How it is done: as §1
Preparing conditioned medium. Cells were grown in LB medium to exponential phase. 0.1 ml of culture was added to 100 ml of MSgg medium and grown without shaking in a 500 ml beaker at 23° C. Next, pellicles and conditioned medium was collected by centrifugation at 8,000 rpm for 15 min. The conditioned medium (supernatant fluid) was removed and filtered through a 0.22 μm filter. The filtrates were stored at 4° C. For further purification the biofilm-inhibiting activity was fractionated on a C-18 Sep Pak cartridge using stepwise elution of 0% to 100% methanol with steps of 5%.
To investigate whether mature biofilms produce a factor that triggers biofilm disassembly, the effect of concentrated and partially purified extracts of conditioned medium on pellicle formation when added to fresh medium was assayed. To this end, conditioned medium from an eight-day-old culture was applied to a C18 Sep Pak column. Concentrated eluate from the column was then added to a freshly inoculated culture. […] Further purification of the factor was achieved by eluting the cartridge in step-wise fashion with increasing concentrations of methanol.
Next, the minimum concentration (MIC for Minimal Inhibitory Concentration) needed to prevent biofilm formation was determined.

Assay [3] has as its system Pseudomonas aeruginosa PA14. In words: Biofilm formation on polystyrene, crystal violet staining. It is filed as cell-based. The protocol:
Crystal violet staining Crystal violet staining was done as described previously (O'Toole et al., Mol. Microbiol. 30:295 (1998)) except that the cells were grown in 6-well plates. Wells were stained with 500 μl of 1.0% Crystal-violet dye, rinsed twice with 2 ml double-distilled water and thoroughly dried.
P. aeruginosa strain […] was grown in 12-well polystyrene plates for 48 hours at 30° C. in M63 medium containing glycerol (0.2%) and Casamino acids (20 μg/ml). Additionally added to the wells were no amino acids (untreated), D-tyrosine or the D-amino acid equimolar mixture. Cells bound to the polystyrene were visualized by washing away unbound cells and then staining with crystal violet. Wells were stained with 500 μl of 1.0% Crystal-violet dye, rinsed twice with 2 ml double-distilled water and thoroughly dried.
For experiments reported in Table 1, the organism/strain was S.a. Harvard SCO1, the culture medium was TSB and the cell inoculation was at 2×10^9 cfu. For experiments reported in Table 2, the organism/strain was […], the culture medium was M63 and the cell inoculation was at 1.5×10^9 cfu. Biofilm was visualized using the crystal violet method.

For the next assay, the system named is S. aureus (strain SCO1). The description is as above. It is filed as cell-based, Staphylococcus aureus. The protocol:
Crystal violet staining Crystal violet staining was done as described previously (O'Toole et al., Mol. […] Wells were stained with 500 μl of 1.0% Crystal-violet dye, rinsed twice with 2 ml double-distilled water and thoroughly dried.
The effect of D-amino acids on biofilm formation by other bacteria was examined. The pathogenic bacterium Staphylococcus aureus forms biofilms on plastic surfaces (Otto, Curr. Top. Microbiol. Immunol. 322:207 (2008)), which can be detected by washing away unbound cells and staining the bound cells with crystal violet. […] Additionally added to the wells were no amino acids (untreated), D-tyrosine (50 μM) or the D-amino acid mixture ([…] each). Cells bound to the polystyrene were visualized by washing away unbound cells and then staining with crystal violet.
For experiments reported in Table 1, the organism/strain was S.a. Harvard SCO1, the culture medium was TSB and the cell inoculation was at 2×10^9 cfu. For experiments reported in Table 2, the organism/strain was […], the culture medium was M63 and the cell inoculation was at 1.5×10^9 cfu. Biofilm was visualized using the crystal violet method. The data is shown below in Tables 1 and 2:
For experiments reported in Tables 3 and 4, the organism/strain was S.a. Harvard SCO1, the culture medium was TSB and the cell inoculation was at 2×10^9 cfu. Biofilm was visualized using the crystal violet method.

Where [4] appears, read: Staphylococcus aureus, 24 h, read-out: % Inhibition relative to control (0%, <50%, 50-90%, >90%).

These results are taken from patent US20130059096A1, “METHODS AND COATINGS FOR TREATING BIOFILMS” (President and Fellows of Harvard College, priority 2010, published 2013).

Where only a bound is given, the exact number is not on record here.

As a reminder, the inhibition is the relative decrease from the control value, in per cent.

Turning to `N[C@H](Cc1ccc(O)cc1)C(=O)O` [D-tyrosine], the inhibition at 50 µM in the assay on Pseudomonas aeruginosa (Pseudomonas aeruginosa, 12 h, read-out: % Inhibition relative to control (0%, <50%, 50-90%, >90%)) was more than 90%. For the same compound, the “number of cells attached to the bottom of the biofilm plate (FIG. 21)” value with Pseudomonas aeruginosa (concentration not given) is given as “dramatic decrease in the number of cells attached”. In addition, the “Biofilm formation on solid MSgg medium (FIG. 6)” value in assay [1] is listed as “inhibited biofilm formation”. In addition, the “Effect on pellicle formation (FIG. 2A)” value in assay [2] (3 μM, freshly inoculated culture, biofilm-inducing medium, 3 days) was “significant inhibition of biofilm growth”. Moreover, the “minimum concentration (MIC / MBIC) needed to prevent biofilm formation” value in assay [2] (FIG. 2B, complete inhibition of pellicle formation, mixture in equimolar amounts) is “about 100 nM”. Moreover, the “Biofilm-inhibition assay for B. subtilis” value in assay [2] (summary statement, concentration not given) is “significant inhibition of biofilm growth”. The “Prevention of biofilm formation (FIG. 10)” value in assay [3] (10 μM, strain P014, polystyrene, 48 hours at 30° C., M63 medium) is given as “effective in preventing biofilm formation”. For the same compound, the inhibition at 0.1 µM in assay [3] (Pseudomonas aeruginosa, PA14, Table 2, 100 nM, 48 h/30° C., polystyrene, M63, read-out: % Inhibition relative to control (0%, <50%, 50-90%, >90%)) worked out at 0%; with S. aureus (strain SCO1) (setting [4]), 0%. The inhibition at 10 µM in assay [3] (Pseudomonas aeruginosa, PA14, Table 2, 10 μM, 48 h/30° C., polystyrene, M63, read-out: % Inhibition relative to control (0%, <50%, 50-90%, >90%)) is more than 90%; in the assay on S. aureus (strain SCO1) (setting [4]) it was 0%. The inhibition at 100 µM in assay [3] (Pseudomonas aeruginosa, PA14, Table 2, 100 μM, 48 h/30° C., polystyrene, M63, read-out: % Inhibition relative to control (0%, <50%, 50-90%, >90%)) was more than 90%; in the assay with S. aureus (strain SCO1) (setting [4]), more than 90%. The inhibition at 500 µM in assay [3] (Pseudomonas aeruginosa, PA14, Table 2, 500 μM, 48 h/30° C., polystyrene, M63, read-out: % Inhibition relative to control (0%, <50%, 50-90%, >90%)) is more than 90%; with S. aureus (strain SCO1) (setting [4]), more than 90%. The “Prevention of biofilm formation (FIG. 2E)” value in the assay on S. aureus (strain SCO1) (50 μM, 12-well polystyrene, 24 hours at 37° C., TSB with glucose (0.5%) and NaCl (3%)) is given as “highly effective in preventing biofilm formation”.
